Assay results published in patent US9296693B2, “Acyl piperidine inhibitors of soluble epoxide hydrolase” (The Regents of the University of California, priority 2010, dated 2016).
Where “and” joins values, the source holds several entries; their conditions need not be identical. Equal entries are not always repeated.

Legend:
[1] = target: murine sEH (Mus musculus (Mouse), UniProt P34914); assay: fluorescent based IC50 assay (CMNPC substrate), recombinant murine sEH; type: biochemical; details: homogenous recombinant murine sEH 1 nM, CMNPC 5 μM, pH 7.0, 30° C., average of three replicates
Chain of murine sEH (P34914 whole entry): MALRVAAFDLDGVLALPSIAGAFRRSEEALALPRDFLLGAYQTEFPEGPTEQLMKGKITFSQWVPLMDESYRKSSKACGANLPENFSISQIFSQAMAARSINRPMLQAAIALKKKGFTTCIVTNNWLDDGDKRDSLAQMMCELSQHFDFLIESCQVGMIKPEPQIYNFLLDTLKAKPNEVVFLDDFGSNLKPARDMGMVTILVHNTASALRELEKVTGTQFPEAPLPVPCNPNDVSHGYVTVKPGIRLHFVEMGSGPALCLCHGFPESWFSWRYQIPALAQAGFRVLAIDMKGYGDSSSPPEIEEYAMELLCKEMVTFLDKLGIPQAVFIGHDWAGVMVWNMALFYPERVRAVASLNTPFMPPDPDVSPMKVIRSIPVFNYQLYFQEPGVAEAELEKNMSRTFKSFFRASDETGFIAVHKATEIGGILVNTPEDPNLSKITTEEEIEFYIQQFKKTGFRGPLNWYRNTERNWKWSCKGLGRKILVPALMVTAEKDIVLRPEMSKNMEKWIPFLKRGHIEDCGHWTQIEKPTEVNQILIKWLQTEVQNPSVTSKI

[2] = Log P determination by HPLC method (OECD guideline 117); type: physicochemical; details: octanol/water; read-out: log P (±0.5)
Protocol: Log P and purity analyses were performed using a Hewlett Packard 1100 HPLC equipped with a diode array detector. A Phenomenex Luna 150 mm×4.6 mm, 5 μm, C-18 column was used for all HPLC analyses.

[3] = target: Human sEH (Homo sapiens (Human), UniProt P34913); assay: fluorescent based IC50 assay (CMNPC substrate), recombinant human sEH; details: read-out: IC50 (nM) Human; homogenous recombinant human sEH 1 nM, CMNPC 5 μM, pH 7.0, 30° C., average of three replicates;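 note: enzyme preincubated with inhibitor for 5 min before adding substrate, in 25 mM Bis-Tris/HCl buffer supplemented with 0.1 mg/mL BSA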
Chain of Human sEH (P34913 whole entry): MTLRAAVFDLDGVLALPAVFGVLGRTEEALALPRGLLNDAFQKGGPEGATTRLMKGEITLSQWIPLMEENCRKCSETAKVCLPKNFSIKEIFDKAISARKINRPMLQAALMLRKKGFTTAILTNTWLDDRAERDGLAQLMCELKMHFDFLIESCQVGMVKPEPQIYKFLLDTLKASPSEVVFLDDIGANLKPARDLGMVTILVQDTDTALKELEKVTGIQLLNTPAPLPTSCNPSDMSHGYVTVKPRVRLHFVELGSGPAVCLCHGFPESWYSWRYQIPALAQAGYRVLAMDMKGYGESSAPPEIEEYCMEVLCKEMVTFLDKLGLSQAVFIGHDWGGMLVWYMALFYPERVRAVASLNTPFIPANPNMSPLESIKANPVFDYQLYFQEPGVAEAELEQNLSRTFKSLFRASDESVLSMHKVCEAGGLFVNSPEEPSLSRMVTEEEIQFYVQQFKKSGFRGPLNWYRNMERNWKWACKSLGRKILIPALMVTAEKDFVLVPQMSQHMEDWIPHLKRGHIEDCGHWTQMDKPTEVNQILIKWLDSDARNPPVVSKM

[4] = log P by shake flask method (OECD guideline 107); type: physicochemical
[5] = Pharmacokinetic screening of selected haloalkyl-phenyl ureas, blood profiles; type: in vivo; details: whole blood

CCC(=O)N1CCC(NC(=O)Nc2cccnc2)CC1 [Compound 9, 1-(1-Propionylpiperidin-4-yl)-3-(pyridin-3-yl)urea]
IC50 [1]: > 5000 nM and 12000 nM | chromatographic logP [2]: < 0 | IC50 [3]: 3800 nM

CCC(=O)N1CCC(NC(=O)Nc2ccc(F)cc2)CC1 [Compound 24, 1-(4-Fluorophenyl)-3-(1-propionylpiperidin-4-yl)urea]
IC50 [1]: 110 nM | log P [4]: 1.9 | IC50 [3]: 79 nM

O=C(Nc1ccc(OC(F)(F)F)cc1)NC1CCN(C(=O)c2cc(O)c(O)c(O)c2)CC1 [Compound 54, 1-(4-(Trifluoromethoxy)phenyl)-3-(1-(3,4,5-trihydroxybenzoyl)piperidin-4-yl)urea]
IC50 [1]: 2.7 nM | log P [4]: 2.3 | IC50 [3]: 0.5 nM

CCCCS(=O)(=O)N1CCC(NC(=O)Nc2ccc(C(F)(F)F)cc2)CC1 [Compound 69, 1-(1-(butylsulfonyl)piperidin-4-yl)-3-(4-(trifluoromethyl)phenyl)urea]
AUC [5]: 15.5 µM·h | Cmax [5]: 1.7 µM | Tmax [5]: 1 h | half-life [5]: 4.5 h

O=C(Nc1ccc(C(F)(F)F)cc1)NC1CCN(S(=O)(=O)C2CC2)CC1 [Compound 70, 1-(1-(cyclopropylsulfonyl)piperidin-4-yl)-3-(4-(trifluoromethyl)phenyl)urea]
AUC [5]: 167 µM·h | Cmax [5]: 10.9 µM | Tmax [5]: 4 h | half-life [5]: 11.9 h
